Results from US20250042894A1, “PROTEIN TYROSINE PHOSPHATASE INHIBITORS AND METHODS OF USE THEREOF” (Calico Life Sciences LLC, priority 2021, published 2025).
Read-outs that look alike come from different tables or passages of the source.

Legend:
[1] = target: T1, His tagged PTPN2 (TC45) protein (Homo sapiens, UniProt P17706); assay: Mobility Shift Assay (MSA) for PTPN2 inhibitors; format: biochemical; details: for Thiochromane x-fold>potency biochemical: PTPN2 MSA IC50 of chromane comparator over thiochromane
T1 construct: His; made in house
T1 sequence (P17706 1-387 isoform P17706-2): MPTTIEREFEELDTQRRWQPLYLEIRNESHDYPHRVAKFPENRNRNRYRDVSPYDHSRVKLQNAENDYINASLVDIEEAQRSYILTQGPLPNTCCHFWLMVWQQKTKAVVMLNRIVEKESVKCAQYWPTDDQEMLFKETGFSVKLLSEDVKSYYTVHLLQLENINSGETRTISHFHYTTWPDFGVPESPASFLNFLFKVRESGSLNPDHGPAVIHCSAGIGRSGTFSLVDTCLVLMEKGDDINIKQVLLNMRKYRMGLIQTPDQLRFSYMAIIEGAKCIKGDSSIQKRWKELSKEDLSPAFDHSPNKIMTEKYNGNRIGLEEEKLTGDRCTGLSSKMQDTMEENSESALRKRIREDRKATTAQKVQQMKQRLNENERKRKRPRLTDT
Method: Example 43: Mobility Shift Assay (MSA) Used to Determine Potency of PTPN2 Inhibitors
Compound activity was determined using in house His tagged PTPN2 (TC45) protein (SEQ ID NO: 1) in an in vitro enzymatic reaction. The enzymatic assay used to determine activity was a mobility shift assay using a LabChip EZ Reader by Caliper Life Sciences. The enzymatic reaction was carried out in assay buffer (50 mM HEPES pH 7.5, 1 mM EGTA, 10 mM EDTA, 0.01% Tween® 20, and 2 mM DTT). The compounds were dispensed on a white 384 well ProxiPlate™ (PerkinElmer Catalog #6008289) plate using the Labcyte Echo at varying concentrations (12 point, 1:3 dilution). The enzyme (at 0.5 nM) was incubated with compound for 10 minutes at room temperature. Thereafter, the substrate (phosphorylated insulin receptor probe sequence: ((OG488)-(NH—CH2—CH2—O—CH2—CH2—O—CH2—CO)-T-R-D-I—(PY)-E-T-D-Y—Y—R—K—K—NH2) (SEQ ID NO: 2) was added at 2 μM to the plates and incubated for another 10 minutes at room temperature. Finally, a quench solution (water and 4-bromo-3-(2-oxo-2-propoxyethoxy)-5-(3-{[1-(phenylmethanesulfonyl)piperidin-4-yl]amino}phenyl)thiophene-2-carboxylic acid) was added to the plates, which were then run on the EZ Reader (excitation 488 nm, emission 530 nm) to measure % conversion (the amount of phosphorylated substrate which was de-phosphorylated by PTPN2). […] The % inhibition was then used to calculate the IC50 values.

[2] = system: IFNγ-induced STAT1 phosphorylation (pSTAT1) in B16F10 cells; assay: B16F10 Phospho-STAT1 HTRF proximal pharmacodynamic (PD) assay; format: cell-based, murine; details: for EC50: B16-F10; for Thiochromane x-fold>potency cellular: pSTAT1 EC50 of chromane comparator over thiochromane
Method: Example 45: B16F10 (Murine Melanoma Cells) Phospho-STAT1 HTRF Proximal Pharmacodynamic (PD) Assay
B16F10 cells were grown and maintained in high glucose DMEM (Gibco, Catalog #11965-092, Dun Laoghaire Co Dublin) supplemented with 10% fetal bovine serum (Gibco, Catalog #10082-139, Dun Laoghaire Co Dublin). The cells were pelleted and resuspended in high glucose DMEM without phenol red (Gibco, Catalog #11054-020, Dun Laoghaire Co Dublin), supplemented with 10% fetal bovine serum and plated in a 384 well Corning plate (product #3765, Corning, NY) at 11,000 cells per well in a volume of 20 μL. The cells were dosed with the compounds of interest using an Echo Liquid Handler (Beckman Coulter, Brea, CA) at 50 μM top dose with 3-fold dilutions down to 0.002679 μM for a 10-point dose response. The plate was incubated for 3 hours at 37° C. and subsequently treated with recombinant mouse IFNγ (R&D Systems, Catalog #485-MI, Minneapolis, MN; 100 nM final concentration) for 10 minutes at 37° C. to induce STAT1 phosphorylation followed by 3.3 μM staurosporine treatment for 1 hour at 37° C. to terminate phosphorylation. Media was then aspirated and 20 μL of 1× lysis buffer/blocking reagent (Cisbio Phospho-STAT1 kit, part #63ADK026PEH, Bedford, MA) was added. The plate was placed on a plate shaker for 30 minutes at room temperature, sealed, and stored at −80° C. until needed. To thaw, the plate was placed on shaker at room temperature until completely thawed while the antibody master mix was made (1:40 Phospho-STAT1 Eu Cryptate antibody, 1:40 Phospho-STAT1 d2 antibody, with the detection buffer; Cisbio Phospho-STAT1 kit, part #63ADK026PEH, Bedford, MA). The antibody master mix was then dispensed at 4 μL per well into a 384 ProxiPlate Plus (PerkinElmer, part #6008289, Waltham, MA) and 16 μL of lysate was added from the Corning plate to the Proxiplate using a VIAFLO 384 (INTEGRA). The plate was incubated for 3 hours at room temperature and read on an EnVision® (Perkin Elmer) plate reader with laser excitation at 335 nm and emission at 665 nm. Dotmatics Studies (Bishop's Stortford, UK) was utilized to generate all dose-response curves and calculate EC50s and are shown in Table 2.

[3] = target: T2, His tagged full-length PTPN1 protein (Homo sapiens, UniProt P18031); assay: Mobility Shift Assay (MSA) for PTPN1 inhibitors; format: biochemical; details: enzyme 0.5 nM, substrate 2 μM, 10 minutes preincubation at room temperature
T2 construct: His; made in house
T2 sequence (P18031 1-435): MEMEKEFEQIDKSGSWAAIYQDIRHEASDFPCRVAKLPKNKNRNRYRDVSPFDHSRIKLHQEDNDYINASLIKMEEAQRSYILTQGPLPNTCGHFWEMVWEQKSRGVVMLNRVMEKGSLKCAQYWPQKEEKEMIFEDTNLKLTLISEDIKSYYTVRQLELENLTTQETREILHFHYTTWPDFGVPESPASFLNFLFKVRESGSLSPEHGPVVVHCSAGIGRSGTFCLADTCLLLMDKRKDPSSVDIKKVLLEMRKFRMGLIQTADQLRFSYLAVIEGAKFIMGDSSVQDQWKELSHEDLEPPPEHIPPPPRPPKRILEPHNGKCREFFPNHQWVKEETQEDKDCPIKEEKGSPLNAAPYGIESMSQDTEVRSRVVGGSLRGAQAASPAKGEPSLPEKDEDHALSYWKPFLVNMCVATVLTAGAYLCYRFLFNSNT
Method: Example 44: Mobility Shift Assay (MSA) Used to Determine Potency of PTPN1 Inhibitors
Compound activity was determined using in house His tagged full-length PTPN1 protein (SEQ ID NO: 3) in an in vitro enzymatic reaction. The enzymatic assay used to determine activity is a mobility shift assay using a LabChip EZ Reader by Caliper Life Sciences. The enzymatic reaction was carried out in assay buffer (50 mM HEPES pH 7.5, 1 mM EGTA, 10 mM EDTA, 0.010% Tween® 20, and 2 mM DTT). The compounds were dispensed on a white 384 well ProxiPlate™ (PerkinElmer Cat #6008289) plate using a Labcyte Echo® liquid handler at varying concentrations (12 point, 1:3 dilution). The enzyme (at 0.5 nM) was incubated with compound for 10 minutes at room temperature. Thereafter, the substrate (phosphorylated insulin receptor probe sequence: ((OG488)-(NH—CH2—CH2—O—CH2—CH2—O—CH2—CO)-T-R-D-I—(PY)-E-T-D-Y—Y—R—K—K—NH2) (SEQ ID NO: 2) was added at 2 μM to the plates and incubated for another 10 minutes at room temperature. Finally, a quench solution (water and 4-bromo-3-(2-oxo-2-propoxyethoxy)-5-(3-{[1-(phenylmethanesulfonyl)piperidin-4-yl]amino}phenyl)thiophene-2-carboxylic acid) was added to the plates, which were then run on the EZ Reader (excitation 488 nm, emission 530 nm) to measure % conversion (the amount of phosphorylated substrate which was de-phosphorylated by PTPN1). […] The % inhibition was then used to calculate the IC50 values.

[4] = enzyme 0.5 nM, substrate 2 μM, 10 minutes preincubation at room temperature
[5] = Table 2, 3 hours compound, then mouse IFNγ 100 nM 10 minutes, top dose 50 μM, read-out: B16F10 IFNγ Induced pSTAT1 EC50
[6] = Mus musculus, Table 3, B16F10 cells, IFNγ-induced, thiochromanes (X = S) and chromane comparators (X = O), read-out: pSTAT1 EC50
[7] = Table 3, thiochromanes (X = S) and chromane comparators (X = O)

| SMILES | EC50 [2, 5] [nM] | EC50 [2, 6] [nM] | IC50 [3] [nM] | Thiochromane x-fold>potency biochemical ([1]; Table 3) | IC50 [1, 4] [nM] | Thiochromane x-fold>potency cellular ([2]; Table 3) | IC50 [1, 7] [nM] |
| --- | --- | --- | --- | --- | --- | --- | --- |
| O=C1CN(c2c(O)cc3c(c2F)C[C@H](NCC2CCC(C(F)(F)F)CC2)CS3)S(=O)(=O)N1 (stereo partly drawn) [Compound 139, 5-[(3S)-5-fluoro-7-hydroxy-3-({[4-(trifluoromethyl)cyclohexyl]methyl}amino)-3,4-dihydro-2H-1-benzothiopyran-6-yl]-1λ^6,2,5-thiadiazolidine-1,1,3-trione] | > 50000 | > 50000 | 10 to 100 | 5.4 | < 10 | ~1.0 |  |
| CC1(CN[C@@H]2CSc3cc(O)c(N4CC(=O)NS4(=O)=O)c(F)c3C2)COC1 [Compound 127, 5-[(3S)-5-fluoro-7-hydroxy-3-{[(3-methyloxetan-3-yl)methyl]amino}-3,4-dihydro-2H-1-benzothiopyran-6-yl]-1λ^6,2,5-thiadiazolidine-1,1,3-trione] | 8970 |  | 10 to 100 |  | 10 to 100 |  |  |
| O=C1CN(c2c(O)cc3c(c2F)C[C@H](NCCCOCC(F)F)CS3)S(=O)(=O)N1 [Compound 137, 5-[(3S)-3-{[3-(2,2-difluoroethoxy)propyl]amino}-5-fluoro-7-hydroxy-3,4-dihydro-2H-1-benzothiopyran-6-yl]-1λ^6,2,5-thiadiazolidine-1,1,3-trione] | > 50000 | > 50000 | 10 to 100 | 1.1 | 10 to 100 | ~1.0 | 21 |
| CCC(CC)CCN[C@@H]1CSc2cc(O)c(N3CC(=O)NS3(=O)=O)c(F)c2C1 [Compound 119, 5-{(3S)-3-[(3-ethylpentyl)amino]-5-fluoro-7-hydroxy-3,4-dihydro-2H-1-benzothiopyran-6-yl}-1λ^6,2,5-thiadiazolidine-1,1,3-trione] | 6660 |  | 10 to 100 |  | < 10 |  |  |

Compounds with a lower EC50 [2, 5], results first:

| EC50 [2, 5] [nM] | EC50 [2, 6] [nM] | IC50 [3] [nM] | SMILES | Thiochromane x-fold>potency biochemical ([1]; Table 3) | IC50 [1, 4] [nM] | Thiochromane x-fold>potency cellular ([2]; Table 3) | IC50 [1, 7] [nM] |
| --- | --- | --- | --- | --- | --- | --- | --- |
| 1830 |  | < 10 | CC(C)C(C)CN[C@@H]1CSc2cc(O)c(N3CC(=O)NS3(=O)=O)c(F)c2C1 (stereo partly drawn) [Compound 115, 5-{(3S)-3-[(2,3-dimethylbutyl)amino]-5-fluoro-7-hydroxy-3,4-dihydro-2H-1-benzothiopyran-6-yl}-1λ^6,2,5-thiadiazolidine-1,1,3-trione] |  | < 10 |  |  |
| 762 |  | < 10 | CC(CN[C@@H]1CSc2cc(O)c(N3CC(=O)NS3(=O)=O)c(F)c2C1)C1CC1 (stereo partly drawn) [Compound 133, 5-{(3S)-3-[(2-cyclopropylpropyl)amino]-5-fluoro-7-hydroxy-3,4-dihydro-2H-1-benzothiopyran-6-yl}-1λ^6,2,5-thiadiazolidine-1,1,3-trione] |  | < 10 |  |  |
| 528 | 528 | < 10 | CC(C)CCN[C@@H]1CSc2cc(O)c(N3CC(=O)NS3(=O)=O)c(F)c2C1 [Compound 103, 5-{(3S)-5-fluoro-7-hydroxy-3-[(3-methylbutyl)amino]-3,4-dihydro-2H-1-benzothiopyran-6-yl}-1λ^6,2,5-thiadiazolidine-1,1,3-trione] | 11.9 | < 10 | 13.2 | 1 |
| 164 |  | < 10 | O=C1CN(c2c(O)cc3c(c2F)C[C@H](NCCCC(F)F)CS3)S(=O)(=O)N1 [Compound 100, 5-{(3S)-3-[(4,4-difluorobutyl)amino]-5-fluoro-7-hydroxy-3,4-dihydro-2H-1-benzothiopyran-6-yl}-1λ^6,2,5-thiadiazolidine-1,1,3-trione] | 3.4 | < 10 |  | 2 |
| 6390 |  | 10 to 100 | CC(C)=CCN[C@@H]1CSc2cc(O)c(N3CC(=O)NS3(=O)=O)c(F)c2C1 [Compound 122, 5-{(3S)-5-fluoro-7-hydroxy-3-[(3-methylbut-2-en-1-yl)amino]-3,4-dihydro-2H-1-benzothiopyran-6-yl}-1λ^6,2,5-thiadiazolidine-1,1,3-trione] |  | 10 to 100 |  |  |
